Consider 26 compounds from BindingDB's records for doi:10.1016/j.bmcl.2003.09.094 (Cv Therapeutics, 2003).

In this experiment the target is Adenosine receptor A1 (hamster). The experiment is described as follows: Binding affinity for adenosine A1 receptor determined using hamster DDT1 cell membranes with [3H]CCPA as radioligand.
What is called Ki is the dissociation constant of the complex between target and ligand, obtained from inhibition or displacement. A lower Ki goes with tighter binding. Compound `CCCCNC(=O)OC[C@H]1OC(n2cnc3c(NC4CCOC4)ncnc32)[C@H](O)[C@@H]1O` (stereo partly drawn) [Butyl-carbamic acid (2R,3S,4R)-3,4-dihydroxy-5-{6-[(R)-(tetrahydro-furan-3-yl)amino]-purin-9-yl}-tetrahydro-furan-2-ylmethyl ester] showed a Ki of 1410 nM.

In the case of `O[C@@H]1[C@@H](COC(=S)NC2CCCC2)OC(n2cnc3c(NC4CCOC4)ncnc32)[C@@H]1O` (stereo partly drawn) [Cyclopentyl-thiocarbamic acid (2R,3S,4R)-3,4-dihydroxy-5-{6-[(R)-(tetrahydro-furan-3-yl)amino]-purin-9-yl}-tetrahydro-furan-2-ylmethyl ester], the Ki turned out to be 72 nM.

Compound `O=C(NC1CCCCC1)OC[C@H]1OC(n2cnc3c(NC4CCOC4)ncnc32)[C@H](O)[C@@H]1O` (stereo partly drawn) [Cyclohexyl-carbamic acid (2R,3S,4R)-3,4-dihydroxy-5-{6-[(R)-(tetrahydro-furan-3-yl)amino]-purin-9-yl}-tetrahydro-furan-2-ylmethyl ester] returned a Ki of 584 nM.

In turn, `CCCNC(=O)OC[C@H]1OC(n2cnc3c(NC4CCOC4)ncnc32)[C@H](O)[C@@H]1O` (stereo partly drawn) [Propyl-carbamic acid (2R,3S,4R)-3,4-dihydroxy-5-{6-[(R)-(tetrahydro-furan-3-yl)amino]-purin-9-yl}-tetrahydro-furan-2-ylmethyl ester] returned a Ki of 235 nM.

Compound `C=CCNC(=S)OC[C@H]1OC(n2cnc3c(NC4CCOC4)ncnc32)[C@H](O)[C@@H]1O` (stereo partly drawn) [Allyl-thiocarbamic acid (2R,3S,4R)-3,4-dihydroxy-5-{6-[(R)-(tetrahydro-furan-3-yl)amino]-purin-9-yl}-tetrahydro-furan-2-ylmethyl ester] yielded a Ki of 35 nM.

On to `O[C@@H]1[C@@H](COC(=S)NCc2ccccc2)OC(n2cnc3c(NC4CCOC4)ncnc32)[C@@H]1O` (stereo partly drawn) [Benzyl-thiocarbamic acid (2R,3S,4R)-3,4-dihydroxy-5-{6-[(R)-(tetrahydro-furan-3-yl)amino]-purin-9-yl}-tetrahydro-furan-2-ylmethyl ester], for which the Ki worked out at 12 nM.

`CNC(=S)OC[C@H]1OC(n2cnc3c(NC4CCOC4)nc(Cl)nc32)[C@H](O)[C@@H]1O` (stereo partly drawn) [Methyl-thiocarbamic acid (2R,3S,4R)-5-{2-chloro-6-[(R)-(tetrahydro-furan-3-yl)amino]-purin-9-yl}-3,4-dihydroxy-tetrahydro-furan-2-ylmethyl ester]: the affinity, expressed as Ki, was 71 nM.

`O[C@@H]1[C@@H](COC(=S)NC2CCCCC2)OC(n2cnc3c(NC4CCOC4)ncnc32)[C@@H]1O` (stereo partly drawn) [Cyclohexyl-thiocarbamic acid (2R,3S,4R)-3,4-dihydroxy-5-{6-[(R)-(tetrahydro-furan-3-yl)amino]-purin-9-yl}-tetrahydro-furan-2-ylmethyl ester] yielded a Ki of 253 nM.

`CNC(=O)OC[C@H]1OC(n2cnc3c(NC4CCOC4)nc(Cl)nc32)[C@H](O)[C@@H]1O` (stereo partly drawn) [Methyl-carbamic acid (2R,3S,4R)-5-{2-chloro-6-[(R)-(tetrahydro-furan-3-yl)amino]-purin-9-yl}-3,4-dihydroxy-tetrahydro-furan-2-ylmethyl ester] had a Ki of 96 nM.

`C=CCNC(=O)OC[C@H]1OC(n2cnc3c(NC4CCOC4)ncnc32)[C@H](O)[C@@H]1O` (stereo partly drawn) [Allyl-carbamic acid (2R,3S,4R)-3,4-dihydroxy-5-{6-[(R)-(tetrahydro-furan-3-yl)amino]-purin-9-yl}-tetrahydro-furan-2-ylmethyl ester] had a Ki of 524 nM.

`O=C(NC1CCC1)OC[C@H]1OC(n2cnc3c(NC4CCOC4)ncnc32)[C@H](O)[C@@H]1O` (stereo partly drawn) [Cyclobutyl-carbamic acid (2R,3S,4R)-3,4-dihydroxy-5-{6-[(R)-(tetrahydro-furan-3-yl)amino]-purin-9-yl}-tetrahydro-furan-2-ylmethyl ester]: affinity was put at a Ki of 306 nM.

In turn, `CCNC(=S)OC[C@H]1OC(n2cnc3c(NC4CCOC4)ncnc32)[C@H](O)[C@@H]1O` (stereo partly drawn) [Ethyl-thiocarbamic acid (2R,3S,4R)-3,4-dihydroxy-5-{6-[(R)-(tetrahydro-furan-3-yl)amino]-purin-9-yl}-tetrahydro-furan-2-ylmethyl ester] registered a Ki of 33 nM.

In turn, `CNC(=S)OC[C@H]1OC(n2cnc3c(NC4CCOC4)ncnc32)[C@H](O)[C@@H]1O` (stereo partly drawn) [Methyl-thiocarbamic acid (2R,3S,4R)-3,4-dihydroxy-5-{6-[(R)-(tetrahydro-furan-3-yl)amino]-purin-9-yl}-tetrahydro-furan-2-ylmethyl ester] gave a Ki of 45 nM.

In turn, `CN(C)C(=S)OC[C@H]1OC(n2cnc3c(NC4CCOC4)ncnc32)[C@H](O)[C@@H]1O` (stereo partly drawn) [Dimethyl-thiocarbamic acid (2R,3S,4R)-3,4-dihydroxy-5-{6-[(R)-(tetrahydro-furan-3-yl)amino]-purin-9-yl}-tetrahydro-furan-2-ylmethyl ester] came in with a Ki of 205 nM.

Turning to `CCCNC(=S)OC[C@H]1OC(n2cnc3c(NC4CCOC4)ncnc32)[C@H](O)[C@@H]1O` (stereo partly drawn) [Propyl-thiocarbamic acid (2R,3S,4R)-3,4-dihydroxy-5-{6-[(R)-(tetrahydro-furan-3-yl)amino]-purin-9-yl}-tetrahydro-furan-2-ylmethyl ester], the Ki was 50 nM.

`O[C@@H]1[C@@H](COC(=S)NC2CCC2)OC(n2cnc3c(NC4CCOC4)ncnc32)[C@@H]1O` (stereo partly drawn) [Cyclobutyl-thiocarbamic acid (2R,3S,4R)-3,4-dihydroxy-5-{6-[(R)-(tetrahydro-furan-3-yl)amino]-purin-9-yl}-tetrahydro-furan-2-ylmethyl ester] had a Ki of 148 nM.

`O=C(NCc1ccccc1)OC[C@H]1OC(n2cnc3c(NC4CCOC4)ncnc32)[C@H](O)[C@@H]1O` (stereo partly drawn) [Benzyl-carbamic acid (2R,3S,4R)-3,4-dihydroxy-5-{6-[(R)-(tetrahydro-furan-3-yl)amino]-purin-9-yl}-tetrahydro-furan-2-ylmethyl ester] returned a Ki of 1830 nM.

`CC(C)NC(=S)OC[C@H]1OC(n2cnc3c(NC4CCOC4)ncnc32)[C@H](O)[C@@H]1O` (stereo partly drawn) [Isopropyl-thiocarbamic acid (2R,3S,4R)-3,4-dihydroxy-5-{6-[(R)-(tetrahydro-furan-3-yl)amino]-purin-9-yl}-tetrahydro-furan-2-ylmethyl ester] had a Ki of 36 nM.

The compound `O=C(NC1CC1)OC[C@H]1OC(n2cnc3c(NC4CCOC4)ncnc32)[C@H](O)[C@@H]1O` (stereo partly drawn) [Cyclopropyl-carbamic acid (2R,3S,4R)-3,4-dihydroxy-5-{6-[(R)-(tetrahydro-furan-3-yl)amino]-purin-9-yl}-tetrahydro-furan-2-ylmethyl ester] yielded a Ki of 209 nM.

With `CCCCNC(=S)OC[C@H]1OC(n2cnc3c(NC4CCOC4)ncnc32)[C@H](O)[C@@H]1O` (stereo partly drawn) [Butyl-thiocarbamic acid (2R,3S,4R)-3,4-dihydroxy-5-{6-[(R)-(tetrahydro-furan-3-yl)amino]-purin-9-yl}-tetrahydro-furan-2-ylmethyl ester], the Ki stood at 157 nM.

For the compound `O[C@@H]1[C@@H](COC(=S)NC2CC2)OC(n2cnc3c(NC4CCOC4)ncnc32)[C@@H]1O` (stereo partly drawn) [Cyclopropyl-thiocarbamic acid (2R,3S,4R)-3,4-dihydroxy-5-{6-[(R)-(tetrahydro-furan-3-yl)amino]-purin-9-yl}-tetrahydro-furan-2-ylmethyl ester], the Ki turned out to be 157 nM.

`CCNC(=S)OC[C@H]1OC(n2cnc3c(NC4CCOC4)nc(Cl)nc32)[C@H](O)[C@@H]1O` (stereo partly drawn) [Ethyl-thiocarbamic acid (2R,3S,4R)-5-{2-chloro-6-[(R)-(tetrahydro-furan-3-yl)amino]-purin-9-yl}-3,4-dihydroxy-tetrahydro-furan-2-ylmethyl ester] had a Ki of 55 nM.

`CCNC(=O)OC[C@H]1OC(n2cnc3c(NC4CCOC4)ncnc32)[C@H](O)[C@@H]1O` (stereo partly drawn) [Ethyl-carbamic acid (2R,3S,4R)-3,4-dihydroxy-5-{6-[(R)-(tetrahydro-furan-3-yl)amino]-purin-9-yl}-tetrahydro-furan-2-ylmethyl ester] returned a Ki of 167 nM.

`O=C(NC1CCCC1)OC[C@H]1OC(n2cnc3c(NC4CCOC4)nc(Cl)nc32)[C@H](O)[C@@H]1O` (stereo partly drawn) [Cyclopentyl-carbamic acid (2R,3S,4R)-5-{2-chloro-6-[(R)-(tetrahydro-furan-3-yl)amino]-purin-9-yl}-3,4-dihydroxy-tetrahydro-furan-2-ylmethyl ester] registered a Ki of 226 nM.

In turn, `CC(C)NC(=O)OC[C@H]1OC(n2cnc3c(NC4CCOC4)ncnc32)[C@H](O)[C@@H]1O` (stereo partly drawn) [Isopropyl-carbamic acid (2R,3S,4R)-3,4-dihydroxy-5-{6-[(R)-(tetrahydro-furan-3-yl)amino]-purin-9-yl}-tetrahydro-furan-2-ylmethyl ester] returned a Ki of 78 nM.

`CN(C)C(=O)OC[C@H]1OC(n2cnc3c(NC4CCOC4)ncnc32)[C@H](O)[C@@H]1O` (stereo partly drawn) [Dimethyl-carbamic acid (2R,3S,4R)-3,4-dihydroxy-5-{6-[(R)-(tetrahydro-furan-3-yl)amino]-purin-9-yl}-tetrahydro-furan-2-ylmethyl ester] yielded a Ki of 238 nM.
